The experiment relates to A549. The experiment in a line: Antiproliferative activity against human A549 cells harboring KRAS G12S point mutant after 72 hrs by SRB assay. The note with it: A549, 72 h. A general note: Sulforhodamine B stains cellular protein and so reports cell mass.
The term IC50 denotes the concentration at which inhibition is half-maximal. The compound `c1ccc(Cn2c(-c3ccc(OC[C@H](C4CCNCC4)n4c(-c5ccccc5)nc5ccccc54)cc3)nc3ccccc32)cc1` displayed an IC50 of 6.4 µM.

The compound `COc1ccc(CSc2nnc(-c3ccc(OCC(=O)Nc4ccc(N(C)C)cc4)cc3)n2Cc2ccccc2)cc1` gave an IC50 of 17.1 µM.

`COc1ccc(CSc2nnc(-c3ccc(OCC(=O)Nc4cc(C)nn4C)cc3)n2Cc2ccccc2)cc1` came in with an IC50 of 18.3 µM.

Compound `COc1ccc(CCc2nnc(-c3ccc(OCC(=O)Nc4cnn(C)c4)cc3)n2Cc2ccccc2)cc1` showed an IC50 of 24.1 µM.

For `CC(C)Cc1nnc(SCc2ccc(C(=O)Nc3ccc4ncccc4c3)cc2)n1Cc1ccccc1`, the IC50 came out at 10.3 µM.

With `COc1ccc(CSc2nnc(-c3ccc(OCC(=O)NC4CCCCC4)cc3)n2Cc2ccccc2)cc1`, the IC50 was 19.3 µM.

`COc1ccc(CSc2nnc(-c3ccc(OCC(=O)Nc4cnn(C)c4)cc3)n2Cc2ccccc2)cc1` gave an IC50 of 36 µM.

`COc1ccc(CSc2nnc(-c3ccc(OCC(=O)Nc4cccnc4)cc3)n2Cc2ccccc2)cc1` showed an IC50 of 11.3 µM.

Turning to `CCC(Oc1ccc(-c2nnc(CCc3ccc(OC)cc3)n2Cc2ccccc2)cc1)C(=O)Nc1cnn(C)c1` (stereo not drawn), the IC50 was more than 50 µM.

In turn, `CC(C)Cc1nnc(SCc2ccc(C(=O)NC3CCCCC3)cc2)n1Cc1ccccc1` displayed an IC50 of 32.6 µM.

`COc1ccc(CCc2nnc(-c3ccc(OC(C)C(=O)Nc4cnn(C)c4)cc3)n2Cc2ccccc2)cc1` (stereo not drawn): the 50% inhibitory concentration (IC50) was more than 50 µM.

In the case of `CC(C)Cc1nnc(SCc2ccc(C(=O)Nc3cccc(F)c3)cc2)n1Cc1ccccc1`, the half-inhibitory concentration (IC50) amounted to 20.3 µM.

The compound `COc1ccc(CCc2nnc(-c3ccc(OC(C)(C)C(=O)Nc4cnn(C)c4)cc3)n2Cc2ccccc2)cc1` gave an IC50 of more than 50 µM.
